Laboratory results as given in patent US11718614B2, “Compounds and methods for treatment of hedgehog pathway associated conditions” (Suzhou Mednes Pharma Tech Co., Ltd., priority 2018, dated 2023).

What follows are compounds tested on tumor cells from medulloblastoma developed from mice with deficiency in Patched1 gene (assay: MB assay: survival of medulloblastoma tumor cells by MTT after 48 hours). Settings: Mus musculus, tumor cells treated 48 hours, cell survival by MTT.
Format: cell-based
Procedure: To test the effect of the novel compounds on the proliferation of tumor cell, we isolated tumor cells from medulloblastoma developed from mice with deficiency in Patched1 gene. Tumor cells were plated in vitro as previously described, and treated with various concentration of compounds for 48 hours. Tumor cells cultured were then harvested to measure cell survival based on MTT assay. The IC50 value for each compound was calculated using Prism the statistical software.
Table 1 below summarizes the IC50 data obtained using MB assay for exemplary compounds of the invention. IC50 values are shown as A, B, C, or D. A represents IC50 value between 1.0 μM and 5.0 μM; B is between 5.0 μM and 10 μM; C is between 10 μM to 20 μM; and D indicates greater than 20 μM.

First: CCc1noc(C(C)(C)Cc2c(SC(C)(C)C)c3cc(O)ccc3n2Cc2ccc(Cl)cc2)n1 [Compound 34]
Second: Cc1coc(C(C)(C)Cc2c(SC(C)(C)C)c3cc(O)ccc3n2Cc2ccc(Cl)cc2)n1 [Compound 32]
The IC50 of the first is higher: 5 to 10 µM for the first, 1 to 5 µM for the second.

`COC(=O)C(C)(C)Cc1nc2cc(OC)ccc2n1Cc1ccccc1Cl` [Compound 58] and `COc1ccc2c(c1)nc(CC(C)(C)C(=O)O)n2Cc1ccccc1Cl` [Compound 57] cannot be ordered by IC50: > 20 µM for the first, > 20 µM for the second.

`COc1ccc2c(c1)nc(C(C)c1ccc(CC#N)cc1)n2Cc1ccccc1Cl` (stereo not shown) [Compound 44] and `COc1ccc2c(c1)nc(C(C)c1ccc(CO)cc1)n2Cc1ccccc1Cl` (stereo not shown) [Compound 43] cannot be ordered by IC50: > 20 µM for the first, > 20 µM for the second.

`COC(=O)C(C)(C)Cc1c(C(=O)CC(C)(C)C)c2cc(OC)ccc2n1Cc1ccc(Cl)cc1` [Compound 21] and `COc1ccc2c(c1)c(C(=O)CC(C)(C)C)c(CC(C)(C)C(=O)O)n2Cc1ccc(Cl)cc1` [Compound 22] cannot be ordered by IC50: > 20 µM for the first, > 20 µM for the second.

First: CC(C)c1ccc2c(c1)c(SCC(C)(C)C)c(CC(C)(C)C(=O)O)n2Cc1ccc(Cl)cc1 [Compound 3]
Second: CC(C)c1ccc2c(c1)c(S(=O)(=O)CC(C)(C)C)c(CC(C)(C)C(=O)O)n2Cc1ccc(Cl)cc1 [Compound 7]
The IC50 of the first is lower: 1 to 5 µM for the first, 10 to 20 µM for the second. The first is the more potent here.

First: CC(C)Cc1ccc(C(C)c2nc3cc(C(=O)O)ccc3n2Cc2ccccc2Cl)cc1 (stereo not shown) [Compound 53]
Second: COc1ccc2c(c1)nc(C(C)c1ccc(C(=O)O)cc1)n2Cc1ccccc1Cl (stereo not shown) [Compound 41]
The IC50 of the first is lower: 10 to 20 µM for the first, > 20 µM for the second. The first is the more potent here.

Compared with `COC(=O)C(C)(C)Cc1c(C(=O)CC(C)(C)C)c2cc(O)ccc2n1Cc1ccc(Cl)cc1` [Compound 24], `CC(C)(C)CC(=O)c1c(CC(C)(C)C(=O)O)n(Cc2ccc(Cl)cc2)c2ccc(O)cc12` [Compound 19] is higher in IC50: 1 to 5 µM for the first, > 20 µM for the second.

First: CCOC(=O)C(C)(C)Cc1c(C(=O)C(C)C)c2cc(C(C)C)ccc2n1Cc1ccc(Cl)cc1 [Compound 10, Ethyl 3-(1-(4-chlorobenzyl)-3-isobutyryl-5-isopropyl-1H-indol-2-yl)-2,2-dimethylpropanoate]
Second: CC(C)C(=O)c1c(CC(C)(C)C(=O)O)n(Cc2ccc(Cl)cc2)c2ccc(C(C)C)cc12 [Compound 9, 3-(1-(4-chlorobenzyl)-3-isobutyryl-5-isopropyl-1H-indol-2-yl)-2,2-dimethylpropanoic Acid]
The IC50 of the first is higher: > 20 µM for the first, 10 to 20 µM for the second.

`COc1cnc2c(c1)c(SC(C)(C)C)c(CC(C)(C)C(=O)O)n2Cc1ccc(Cl)cc1` [Compound 17] and `CCOC(=O)C(C)(C)Cc1c(SC(C)(C)C)c2cc(OC)cnc2n1Cc1ccc(Cl)cc1` [Compound 18] cannot be ordered by IC50: > 20 µM for the first, > 20 µM for the second.

Compared with `Cn1nnnc1C(C)(C)Cc1c(SC(C)(C)C)c2cc(O)ccc2n1Cc1ccc(Cl)cc1` [Compound 37, 3-(tert-butylthio)-1-(4-chlorobenzyl)-2-(2-methyl-2-(1-methyl-1H-tetrazol-5-yl)propyl)-1H-indol-5-ol], `COc1ccc2c(c1)c(SC(C)(C)C)c(CC(C)(C)c1nnnn1C)n2Cc1ccc(Cl)cc1` [Compound 35, 3-(tert-butylthio)-1-(4-chlorobenzyl)-5-methoxy-2-(2-methyl-2-(1-methyl-1H-tetrazol-5-yl)propyl)-1H-indole] is lower in IC50: 10 to 20 µM for the first, 5 to 10 µM for the second.

Compared with `CCOC(=O)CCc1c(SC(C)(C)C)c2cc(C(C)C)ccc2n1Cc1ccc(Cl)cc1` [Compound 12], `CC(C)c1ccc2c(c1)c(SC(C)(C)C)c(CCC(=O)O)n2Cc1ccc(Cl)cc1` [Compound 11, 3-(3-(tert-butylthio)-1-(4-chlorobenzyl)-5-isopropyl-1H-indol-2-yl) Propanoic Acid] is lower in IC50: > 20 µM for the first, 5 to 10 µM for the second.

First: CC(C)c1ccc2c(C(=O)c3ccc(Cl)cc3)c(CC(C)(C)C(=O)O)n(CC3CCC3)c2c1 [Compound 27]
Second: CC(C)(Cc1c(C(=O)c2ccc(Cl)cc2)c2ccc(O)cc2n1CC1CCC1)C(=O)O [Compound 29, 3-(3-(4-chlorobenzoyl)-1-(cyclobutylmethyl)-6-hydroxy-1H-indol-2-yl)-2,2-dimethylpropanoic Acid]
The IC50 of the first is lower: 5 to 10 µM for the first, > 20 µM for the second.

First: COc1ccc2c(c1)nc(C(C)c1ccc(C#N)cc1)n2Cc1ccccc1Cl (stereo not shown) [Compound 40]
Second: COc1ccc2c(c1)nc(C(C)c1ccc(Br)cc1)n2Cc1ccccc1Cl (stereo not shown) [Compound 39]
The IC50 of the first is higher: > 20 µM for the first, 5 to 10 µM for the second. The second is the more potent here.

First: CC(C)c1ccc2c(c1)c(SC(C)(C)C)c(CC(=O)O)n2Cc1ccc(Cl)cc1 [Compound 13, 2-(3-(tert-butylthio)-1-(4-chlorobenzyl)-5-isopropyl-1H-indol-2-yl) Acetic Acid]
Second: COC(=O)Cc1c(SC(C)(C)C)c2cc(C(C)C)ccc2n1Cc1ccc(Cl)cc1 [Compound 14, methyl 2-(3-(tert-butylthio)-1-(4-chlorobenzyl)-5-isopropyl-1H-indol-2-yl)acetate]
The IC50 of the first is lower: 10 to 20 µM for the first, > 20 µM for the second. The first is the more potent here.

`COc1ccc2c(c1)nc(C(C)c1ccc(CC(=O)O)cc1)n2Cc1ccccc1Cl` (stereo not shown) [Compound 45] and `COC(=O)c1ccc(C(C)c2nc3cc(OC)ccc3n2Cc2ccccc2Cl)cc1` (stereo not shown) [Compound 42] cannot be ordered by IC50: > 20 µM for the first, > 20 µM for the second.

First: COc1ccc2c(c1)nc(-c1ccc(CC(C)C)cc1)n2Cc1ccccc1Cl [Compound 50]
Second: CC(C)Cc1ccc(-c2nc3cc(O)ccc3n2Cc2ccccc2Cl)cc1 [Compound 51]
The IC50 of the first is higher: 10 to 20 µM for the first, 5 to 10 µM for the second.

`CC(C)(C)CCc1c(CC(C)(C)CO)n(Cc2ccc(Cl)cc2)c2ccc(O)cc12` [Compound 20] and `COc1ccc2c(c1)c(CCC(C)(C)C)c(CC(C)(C)CO)n2Cc1ccc(Cl)cc1` [Compound 26] fall in the same range of IC50: 1 to 5 µM for the first, 1 to 5 µM for the second.

First: CC(C)Cc1ccc(C(C)c2cc3cc(O)ccc3n2Cc2cccc(Cl)c2)cc1 (stereo not shown) [Compound 49]
Second: COc1ccc2c(c1)cc(C(C)c1ccc(CC(C)C)cc1)n2Cc1cccc(Cl)c1 (stereo not shown) [Compound 48]
The IC50 of the first is lower: 1 to 5 µM for the first, > 20 µM for the second. The first is the more potent here.

First: CC(C)c1ccc2c(c1)c(SC(C)(C)C)c(CC(C)(C)C)n2Cc1ccc(Cl)cc1 [Compound 15]
Second: CCOC(=O)C(C)(C)Cc1c([S+]([O-])CC(C)(C)C)c2cc(C(C)C)ccc2n1Cc1ccc(Cl)cc1 (stereo not shown) [Compound 6]
The IC50 of the first is higher: > 20 µM for the first, 10 to 20 µM for the second. The second is the more potent here.

First: COc1ccc2c(c1)c(SC(C)(C)C)c(CC(C)(C)c1nc(C)co1)n2Cc1ccc(Cl)cc1 [Compound 31]
Second: COc1ccc2c(c1)c(SC(C)(C)C)c(CC(C)(C)c1nnn(C)n1)n2Cc1ccc(Cl)cc1 [Compound 36, 3-(tert-butylthio)-1-(4-chlorobenzyl)-5-methoxy-2-(2-methyl-2-(2-methyl-2H-tetrazol-5-yl)propyl)-1H-indole]
The IC50 of the first is higher: > 20 µM for the first, 5 to 10 µM for the second. The second is the more potent here.

First: Cc1c(-c2ccc(CC(C)C)cc2)c2cc(O)ccc2n1Cc1ccccc1Cl [Compound 55]
Second: COc1ccc2c(c1)c(-c1ccc(CC(C)C)cc1)c(C)n2Cc1ccccc1Cl [Compound 54]
The IC50 of the first is lower: 1 to 5 µM for the first, > 20 µM for the second.

First: COc1ccc2c(c1)c(C(=O)CC(C)(C)C)c(CC(C)(C)CO)n2Cc1ccc(Cl)cc1 [Compound 23]
Second: CC(C)(C)CC(=O)c1c(CC(C)(C)CO)n(Cc2ccc(Cl)cc2)c2ccc(O)cc12 [Compound 25]
The IC50 of the first is lower: 5 to 10 µM for the first, > 20 µM for the second. The first is the more potent here.

In the case of `CC(C)c1cnc2c(c1)c(C(=O)C1CCC1)c(CC(C)(C)C(=O)O)n2Cc1ccc(Cl)cc1` [Compound 16, 3-(1-(4-chlorobenzyl)-3-(cyclobutanecarbonyl)-5-isopropyl-1H-pyrrolo-[2,3-b]pyridin-2-yl)-2,2-dimethylpropanoic acid], the IC50 is reported as 10 to 20 µM.

Same assay, conditions: tumor cells treated 48 hours, cell survival by MTT

“3-(tert-butylthio)-1-(4-chlorobenzyl)-2-(2-methyl-2-(2-methyl-2H-tetrazol-5-yl)propyl)-1H-indol-5-ol [Compound 38]” was tested, and the IC50 was 1 to 5 µM.
